Laboratory results from patent US9809853B2, “Calcium-activated chloride channel involved in human sweat formation” (BRAIN Biotechnology Research and Information Network AG, priority 2012, dated 2017).

Target: T1, CaCC (Ca^2+-activated chloride channels) in NCL-SG3-hsYFP cells (Homo sapiens, UniProt Q5XXA6)
T1 sequence (Q5XXA6 1-986): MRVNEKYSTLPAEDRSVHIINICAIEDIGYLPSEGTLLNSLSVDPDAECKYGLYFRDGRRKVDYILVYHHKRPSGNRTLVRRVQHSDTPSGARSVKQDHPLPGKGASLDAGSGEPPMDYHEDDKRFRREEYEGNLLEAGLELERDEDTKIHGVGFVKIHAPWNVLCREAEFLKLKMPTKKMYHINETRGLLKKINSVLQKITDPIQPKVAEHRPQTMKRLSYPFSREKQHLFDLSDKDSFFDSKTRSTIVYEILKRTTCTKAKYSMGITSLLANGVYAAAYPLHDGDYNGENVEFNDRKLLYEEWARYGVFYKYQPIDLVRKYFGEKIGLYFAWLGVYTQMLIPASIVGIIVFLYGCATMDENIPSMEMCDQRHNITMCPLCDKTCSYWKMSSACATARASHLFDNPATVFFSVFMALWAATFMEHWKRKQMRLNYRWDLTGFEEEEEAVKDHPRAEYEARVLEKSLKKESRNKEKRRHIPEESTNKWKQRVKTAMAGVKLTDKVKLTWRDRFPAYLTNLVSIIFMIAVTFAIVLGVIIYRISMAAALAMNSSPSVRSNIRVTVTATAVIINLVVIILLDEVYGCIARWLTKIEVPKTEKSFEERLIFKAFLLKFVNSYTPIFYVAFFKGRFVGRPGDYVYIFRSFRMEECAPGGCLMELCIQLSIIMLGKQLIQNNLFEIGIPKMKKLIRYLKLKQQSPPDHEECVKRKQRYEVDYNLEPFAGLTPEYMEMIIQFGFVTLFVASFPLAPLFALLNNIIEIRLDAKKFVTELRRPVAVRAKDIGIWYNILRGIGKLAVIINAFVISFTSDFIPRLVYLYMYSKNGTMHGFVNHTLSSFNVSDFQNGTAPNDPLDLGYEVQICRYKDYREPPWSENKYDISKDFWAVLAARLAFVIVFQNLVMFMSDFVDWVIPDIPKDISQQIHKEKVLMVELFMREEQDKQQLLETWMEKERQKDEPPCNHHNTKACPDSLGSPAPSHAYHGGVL
Experiment: hsYFP fluorescence quenching (Cl^− efflux/I^− influx) assay in NCL-SG3-hsYFP CaCC activity sensor cells
Format: cell-based
Description: The halide inside the cell functionally interacts with the halide-sensitive cytoplasmic indicator protein, which leads to a quenching of the signal provided by the halide-sensitive cytoplasmic indicator protein. The more halide (such as e.g. iodide) flows into the cell, the weaker the signal emitted by the halide-sensitive cytoplasmic indicator protein becomes. This alteration of the signal emitted by the halide-sensitive cytoplasmic indicator protein is determined in a third step of the method of the invention. Due to the fact that the influx of halide into the cell is proportional to the efflux of chloride ions, the halide influx is used as a direct measure for chloride secretion. To determine the amount of chloride secretion, the fluorescence decrease is plotted against time (Δfluorescence/Δtime) and the initial slope of the resulting graph represents the iodide influx rate (sec^−1), which in turn is directly proportional to the chloride efflux rate, representing the amount of chloride secretion per time. In a fourth step, this amount of chloride secretion determined in the presence of a test compound is compared to the amount of chloride secretion determined in the absence of a said compound.
Effect of CaCC inhibitors on sweat gland-specific Ca^2+-dependent […] and proportional I^− influx was determined using NCL-SG3-hsYFP cells. Quenching of intracellular hsYFP fluorescence was measured and plotted over time. Exemplary raw data (B) and fitted curves are shown (A). NCL-SG3-hsYFP cells were incubated with 50 μM tannic acid (TA), 25 μM niflumic acid (NFA), 25 μM 5-nitro-2-(3-phenylpropyl-amino) benzoic acid (NPPB), 100 μM epigallocatechin-3-gallate (EGCG) for 15 min and then stimulated with 330 μM ATP.
Sweat gland-specific Ca^2+-dependent Cl^− efflux and a proportional I^− influx was determined using NCL-SG3-hsYFP cells. Quenching of intracellular hsYFP fluorescence was measured and plotted over time. Exemplary fitted curves are shown. NCL-SG3-hsYFP cells were incubated with increasing concentrations of tannic acid (TA) and then stimulated with 330 μM ATP. […] NCL-SG3-hsYFP cells were incubated with increasing concentrations of CaCC inhibitors and quenching of intracellular hsYFP fluorescence was measured after stimulation with ATP. The rate of […] (sec^−1), which is proportional to Ca^2+-dependent […] was calculated from the initial slope of the measured hsYFP fluorescence (ΔYFP fluorescence/Δtime) and is a direct measure of CaCC activity. IC50 values were determined by plotting the percentage of residual CaCC activity against the individual inhibitor concentration.
NCL-SG3-hsYFP cells were routinely cultivated in Williams' Medium E supplemented with 9% Fetal Calf Serum, 3.5 mM Glutamine, 9 ng/μl Hydrocortisone, Insulin-Transferrin-Selenium-Supplement (PAA Laboratories) at 37° C. and 5% CO2. For microplate assays, 20,000 cells were seeded in 96-well black-walled, clear bottom microplates (Costar) and cultivated for 2 days until cells reached confluency. Cells were washed three times with 100 μl modified Krebs-Henseleit (KH) buffer (137 mM NaCl, 2.7 mM KCl, 1.2 mM MgSO4, 1.2 mM KH2PO4, 4.2 mM NaHCO3, 1.3 mM CaCl2, 10 mM HEPES, pH 7.4) and incubated with the test compound in 50 μl KH-buffer for 15 min at 37° C. and 5% CO2. Microplates were transferred into an automated fluorescence plate reader (FlexStation®, Molecular Devices) and cellular hsYFP fluorescence was continuously recorded every 3.5 sec until end of the experiment (excitation at 485 nm, emission at 535 nm, cutoff 515 nm).

Structure (SMILES)	Quenching of hsYFP fluorescence after addition of Ca^2+-elevating agent (330 μM)	Concentration giving maximal quenching of hsYFP (dose-dependent stimulation of Ca^2+-dependent Cl^− transport)	Effect on hsYFP quenching by Cl^− efflux/I^− influx mediated by ATP (50 μM, 15 min, then 330 μM ATP)	Dose dependence of inhibition of CaCC-mediated Cl^− efflux (increasing inhibitor concentrations, stimulation with 330 μM ATP)	Effect of pretreatment on basal hsYFP quenching (unactivated cells (no ATP))
Nc1ncnc2c1ncn2[C@@H]1O[C@H](COP(=O)(O)OP(=O)(O)OP(=O)(O)O)[C@@H](O)[C@H]1O [ATP]	fast quenching of the hsYFP fluorescence without recovery	330 µM			
O=C(OC[C@H]1O[C@@H](OC(=O)c2cc(O)c(O)c(OC(=O)c3cc(O)c(O)c(O)c3)c2)[C@H](OC(=O)c2cc(O)c(O)c(OC(=O)c3cc(O)c(O)c(O)c3)c2)[C@@H](OC(=O)c2cc(O)c(O)c(OC(=O)c3cc(O)c(O)c(O)c3)c2)[C@@H]1OC(=O)c1cc(O)c(O)c(OC(=O)c2cc(O)c(O)c(O)c2)c1)c1cc(O)c(O)c(OC(=O)c2cc(O)c(O)c(O)c2)c1 [TA, tannic acid]			significant reduction of hsYFP quenching	dose-dependent reduction of hsYFP quenching	significant reduction of basal hsYFP quenching
